According to paper doi:10.1101/2024.08.19.608619, “Discovery of potent SARS-CoV-2 nsp3 macrodomain inhibitors uncovers lack of translation to cellular antiviral response” (bioRxiv, 2024):
≈ marks a conversion by molar mass, not a printed value.

Experiment: Hepatic microsomal stability, HLM
Type: in vitro ADME, human
Details: In vitro human liver microsomal stability

SMILES | clint | perc_remaining | t_half
CC(C)[C@H](CO)Nc1ncnc2[nH]ccc12 [ASAP-0000453] | 6.0 µL/min/mg | 119.0% | 289.0 min
CNC(=O)c1c[nH]c2ncnc(N[C@@H](c3ccc4c(c3)OCCO4)C(C)C)c12 [ASAP-0008406] | 79.0 µL/min/mg | 27.0% | 21.2 min
CC(C)[C@H](Nc1ncnc2[nH]ccc12)c1ccc2c(c1)NC(=O)CO2 [ASAP-0008430] | 10.0 µL/min/mg | 86.0% | 160.3 min
CC(C)[C@H](Nc1ncnc2[nH]c(-c3cnn(CC(N)=O)c3)cc12)c1ccc2c(c1)OCCO2 [ASAP-0008449] | 47.0 µL/min/mg | 43.0% | 35.4 min
CNC(=O)c1cc2c(N[C@@H](c3ccc4c(c3)NC(=O)CO4)C(C)C)ncnc2[nH]1 [ASAP-0008571] | 52.0 µL/min/mg | 39.0% | 32.0 min
CC(C)[C@@H](Nc1ncnc2[nH]c(-c3cnn(C)c3C#N)cc12)c1ccc2c(n1)NC(=O)CO2 [ASAP-0008644] | 70.0 µL/min/mg | 30.0% | 23.7 min

Same assay, conditions: In vitro human liver microsomal stability; no cofactor

SMILES | perc_remaining_no_cofactor
CC(C)[C@H](CO)Nc1ncnc2[nH]ccc12 [ASAP-0000453] | 99.0%
CNC(=O)c1c[nH]c2ncnc(N[C@@H](c3ccc4c(c3)OCCO4)C(C)C)c12 [ASAP-0008406] | 113.0%
CC(C)[C@H](Nc1ncnc2[nH]ccc12)c1ccc2c(c1)NC(=O)CO2 [ASAP-0008430] | 95.0%
CC(C)[C@H](Nc1ncnc2[nH]c(-c3cnn(CC(N)=O)c3)cc12)c1ccc2c(c1)OCCO2 [ASAP-0008449] | 102.0%
CNC(=O)c1cc2c(N[C@@H](c3ccc4c(c3)NC(=O)CO4)C(C)C)ncnc2[nH]1 [ASAP-0008571] | 94.0%
CC(C)[C@@H](Nc1ncnc2[nH]c(-c3cnn(C)c3C#N)cc12)c1ccc2c(n1)NC(=O)CO2 [ASAP-0008644] | 97.0%

Experiment: Hepatic microsomal stability, MLM
Type: in vitro ADME
Details: In vitro mouse liver microsomal stability

SMILES | clint | perc_remaining | t_half
CC(C)[C@H](CO)Nc1ncnc2[nH]ccc12 [ASAP-0000453] | 10.0 µL/min/mg | 90.0% | 171.1 min
CNC(=O)c1c[nH]c2ncnc(N[C@@H](c3ccc4c(c3)OCCO4)C(C)C)c12 [ASAP-0008406] | 88.0 µL/min/mg | 20.0% | 19.0 min
CC(C)[C@H](Nc1ncnc2[nH]ccc12)c1ccc2c(c1)NC(=O)CO2 [ASAP-0008430] | 37.0 µL/min/mg | 54.0% | 45.1 min
CC(C)[C@H](Nc1ncnc2[nH]c(-c3cnn(CC(N)=O)c3)cc12)c1ccc2c(c1)OCCO2 [ASAP-0008449] | 16.0 µL/min/mg | 80.0% | 103.7 min
CNC(=O)c1cc2c(N[C@@H](c3ccc4c(c3)NC(=O)CO4)C(C)C)ncnc2[nH]1 [ASAP-0008571] | 20.0 µL/min/mg | 71.0% | 84.4 min
CC(C)[C@@H](Nc1ncnc2[nH]c(-c3cnn(C)c3C#N)cc12)c1ccc2c(n1)NC(=O)CO2 [ASAP-0008644] | 145.0 µL/min/mg | 9.0% | 11.5 min

Same assay, conditions: In vitro mouse liver microsomal stability, no cofactor

SMILES | perc_remaining_no_cofactor
CC(C)[C@H](Nc1ncnc2[nH]c(-c3cnn(CC(N)=O)c3)cc12)c1ccc2c(c1)OCCO2 [ASAP-0008449] | 104.0%
CNC(=O)c1cc2c(N[C@@H](c3ccc4c(c3)NC(=O)CO4)C(C)C)ncnc2[nH]1 [ASAP-0008571] | 103.0%
CC(C)[C@@H](Nc1ncnc2[nH]c(-c3cnn(C)c3C#N)cc12)c1ccc2c(n1)NC(=O)CO2 [ASAP-0008644] | 92.0%

Same assay, conditions: In vitro mouse liver microsomal stability; no cofactor

SMILES | perc_remaining_no_cofactor
CC(C)[C@H](CO)Nc1ncnc2[nH]ccc12 [ASAP-0000453] | 93.0%
CNC(=O)c1c[nH]c2ncnc(N[C@@H](c3ccc4c(c3)OCCO4)C(C)C)c12 [ASAP-0008406] | 95.0%
CC(C)[C@H](Nc1ncnc2[nH]ccc12)c1ccc2c(c1)NC(=O)CO2 [ASAP-0008430] | 89.0%

Experiment: LogD
Details: pH 7.4; In vitro LogD

SMILES | logd
CC(C)[C@H](CO)Nc1ncnc2[nH]ccc12 [ASAP-0000453] | 1.69
CNC(=O)c1c[nH]c2ncnc(N[C@@H](c3ccc4c(c3)OCCO4)C(C)C)c12 [ASAP-0008406] | 3.6
CC(C)[C@H](Nc1ncnc2[nH]ccc12)c1ccc2c(c1)NC(=O)CO2 [ASAP-0008430] | 1.8
CC(C)[C@H](Nc1ncnc2[nH]c(-c3cnn(CC(N)=O)c3)cc12)c1ccc2c(c1)OCCO2 [ASAP-0008449] | 2.9
CNC(=O)c1cc2c(N[C@@H](c3ccc4c(c3)NC(=O)CO4)C(C)C)ncnc2[nH]1 [ASAP-0008571] | 2.8
CC(C)[C@@H](Nc1ncnc2[nH]c(-c3cnn(C)c3C#N)cc12)c1ccc2c(n1)NC(=O)CO2 [ASAP-0008644] | 3.7

Experiment: In vitro kinetic solubility
Details: In vitro kinetic solubility, ph 7.4

SMILES | solubility_mean
CC(C)[C@H](CO)Nc1ncnc2[nH]ccc12 [ASAP-0000453] | ≥ 400 µM
CNC(=O)c1c[nH]c2ncnc(N[C@@H](c3ccc4c(c3)OCCO4)C(C)C)c12 [ASAP-0008406] | 319 µM (≈ 122 µg/mL)
CC(C)[C@H](Nc1ncnc2[nH]ccc12)c1ccc2c(c1)NC(=O)CO2 [ASAP-0008430] | 371 µM (≈ 125 µg/mL)
CC(C)[C@H](Nc1ncnc2[nH]c(-c3cnn(CC(N)=O)c3)cc12)c1ccc2c(c1)OCCO2 [ASAP-0008449] | 280 µM (≈ 125 µg/mL)
CNC(=O)c1cc2c(N[C@@H](c3ccc4c(c3)NC(=O)CO4)C(C)C)ncnc2[nH]1 [ASAP-0008571] | 372 µM (≈ 147 µg/mL)
CC(C)[C@@H](Nc1ncnc2[nH]c(-c3cnn(C)c3C#N)cc12)c1ccc2c(n1)NC(=O)CO2 [ASAP-0008644] | 29 µM (≈ 12.9 µg/mL)

Experiment: Permeability Papp (AB) MDR1/MDCKII
Details: In vitro MDR1-MDCKII permeability, A to B, mean

SMILES | papp_a_to_b_mean
CC(C)[C@H](CO)Nc1ncnc2[nH]ccc12 [ASAP-0000453] | 13.1 ×10⁻⁶ cm/s
CNC(=O)c1c[nH]c2ncnc(N[C@@H](c3ccc4c(c3)OCCO4)C(C)C)c12 [ASAP-0008406] | 16.2 ×10⁻⁶ cm/s
CC(C)[C@H](Nc1ncnc2[nH]ccc12)c1ccc2c(c1)NC(=O)CO2 [ASAP-0008430] | 3.4 ×10⁻⁶ cm/s
CNC(=O)c1cc2c(N[C@@H](c3ccc4c(c3)NC(=O)CO4)C(C)C)ncnc2[nH]1 [ASAP-0008571] | 0.873 ×10⁻⁶ cm/s
CC(C)[C@@H](Nc1ncnc2[nH]c(-c3cnn(C)c3C#N)cc12)c1ccc2c(n1)NC(=O)CO2 [ASAP-0008644] | 9.83 ×10⁻⁶ cm/s

Same assay, conditions: In vitro MDR1-MDCKII permeability, A to B, no inhibitor

SMILES | papp_a_to_b_mean
CC(C)[C@H](Nc1ncnc2[nH]c(-c3cnn(CC(N)=O)c3)cc12)c1ccc2c(c1)OCCO2 [ASAP-0008449] | 1.09 ×10⁻⁶ cm/s

Same assay, conditions: In vitro MDR1-MDCKII permeability, recovery A to B, mean

SMILES | perc_recovery_a_to_b_mean
CC(C)[C@H](CO)Nc1ncnc2[nH]ccc12 [ASAP-0000453] | 89.0%
CNC(=O)c1c[nH]c2ncnc(N[C@@H](c3ccc4c(c3)OCCO4)C(C)C)c12 [ASAP-0008406] | 92.4%
CC(C)[C@H](Nc1ncnc2[nH]ccc12)c1ccc2c(c1)NC(=O)CO2 [ASAP-0008430] | 90.0%
CNC(=O)c1cc2c(N[C@@H](c3ccc4c(c3)NC(=O)CO4)C(C)C)ncnc2[nH]1 [ASAP-0008571] | 88.1%
CC(C)[C@@H](Nc1ncnc2[nH]c(-c3cnn(C)c3C#N)cc12)c1ccc2c(n1)NC(=O)CO2 [ASAP-0008644] | 91.2%

Same assay, conditions: In vitro MDR1-MDCKII permeability, recovery A to B, no inhibitor

SMILES | perc_recovery_a_to_b_mean
CC(C)[C@H](Nc1ncnc2[nH]c(-c3cnn(CC(N)=O)c3)cc12)c1ccc2c(c1)OCCO2 [ASAP-0008449] | 87.8%
